25 compounds from US7109243B2 (IRM LLC, priority 2003, dated 2006) can be followed below.

One experiment deals with T1, Cathepsin K (Homo sapiens, UniProt P43235).
T1 sequence (P43235 115-329): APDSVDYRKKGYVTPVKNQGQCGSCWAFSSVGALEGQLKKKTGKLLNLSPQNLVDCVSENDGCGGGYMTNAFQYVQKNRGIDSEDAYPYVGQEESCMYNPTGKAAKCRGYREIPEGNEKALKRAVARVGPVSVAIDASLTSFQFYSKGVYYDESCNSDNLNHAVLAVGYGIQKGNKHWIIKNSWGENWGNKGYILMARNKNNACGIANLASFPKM
The experiment can be described thus: Cathepsin K inhibition assay (fluorogenic peptide substrate); selectivity ratio vs cathepsin S. It counts as biochemical. Particulars: ratio of cathepsin K inhibition constant to cathepsin S inhibition constant; Table II. The gist of the method: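 Fluorogenic kinetic assay, started with acetyl-Lys-His-Pro-Lys-aminocarbamoylcoumarin at 40 μM final, hydrolysis followed at ex 380/em 450 nm. Apparent inhibition constants from progress curves, converted to competitive inhibition constants. Selectivity expressed as isozyme inhibition constant divided by cathepsin S inhibition constant.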

The next experiment has as its target Cathepsin S (Homo sapiens, UniProt P25774). The experiment can be described thus: Cathepsin S inhibition assay (fluorogenic peptide substrate). Format: biochemical. Particulars: Table II, compounds of Formula I; read-out: Ki Cat. S. The gist of the method:
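Ki values come from nonlinear fitting of inhibited hydrolysis rates, taking free and total inhibitor concentrations as equal. Rates measured as rising fluorescence at 380/450 nm after reaction start with 50 μM final acetyl-HPVK-aminocarbamoylcoumarin.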

pKi: −log10 of the molar value.

Cathepsin S, sequence (P25774 115-331, species assumed): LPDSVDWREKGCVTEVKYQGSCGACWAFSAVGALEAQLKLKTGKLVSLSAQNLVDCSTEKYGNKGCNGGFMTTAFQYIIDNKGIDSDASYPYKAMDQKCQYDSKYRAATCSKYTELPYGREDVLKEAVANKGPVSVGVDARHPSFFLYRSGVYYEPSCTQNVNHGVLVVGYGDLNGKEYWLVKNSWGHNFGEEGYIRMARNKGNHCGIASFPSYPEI

In general, pKi refers to −log10 of the Ki, conventionally taken in molar units. With `COc1ccc(NCCNC(=O)[C@H](Cc2ccc(C#N)cc2)NC(=O)c2cccc(C)c2)cc1` [Compound 240, (S)-N-{2-(4-Cyano-phenyl)-1-[2-(4-methoxy-phenylamino)-ethylcarbamoyl]-ethyl}-3-methyl-benzamide], the “Selectivity for Cat. S over Cat. K” value on Cathepsin K is reported as “+++ (+++, >1000)”. Besides, the pKi at Cathepsin S was greater than 7.00.

In the case of `COc1ccc(NCCNC(=O)[C@H](Cc2ccc(Br)cc2)NC(=O)c2cccc(C)c2)cc1` [Compound 241, (S)-N-{2-(4-Bromo-phenyl)-1-[2-(4-methoxy-phenylamino)-ethylcarbamoyl]-ethyl}-3-methyl-benzamide], the “Selectivity for Cat. S over Cat. K” value on Cathepsin K was “+++ (+++, >1000)”. The pKi at Cathepsin S was greater than 7.00.

For the compound `COc1ccc(NCCNC(=O)[C@H](Cc2ccc(I)cc2)NC(=O)c2cccc(C)c2)cc1` [Compound 242, (S)-N-{2-(4-Iodo-phenyl)-1-[2-(4-methoxy-phenylamino)-ethylcarbamoyl]-ethyl}-3-methyl-benzamide], the “Selectivity for Cat. S over Cat. K” value at Cathepsin K was “+++ (+++, >1000)”. At Cathepsin S, the pKi was greater than 7.00.

With `COc1ccc(NCCNC(=O)[C@H](Cc2ccc([N+](=O)[O-])cc2)NC(=O)c2cccc(C)c2)cc1` [Compound 244, (S)-N-[1-[2-(4-Methoxy-phenylamino)-ethylcarbamoyl]-2-(4-nitro-phenyl)-ethyl]-3-methyl-benzamide], the “Selectivity for Cat. S over Cat. K” value at Cathepsin K is “+++ (+++, >1000)”. For the same compound, on Cathepsin S, the pKi is greater than 6.00.

`COc1ccc(NCCNC(=O)[C@H](Cc2ccc(F)cc2)NC(=O)c2cccc(C)c2)cc1` [Compound 245, (S)-N-{2-(4-Fluoro-phenyl)-1-[2-(4-methoxy-phenylamino)-ethylcarbamoyl]-ethyl}-3-methyl-benzamide]: on Cathepsin K, the “Selectivity for Cat. S over Cat. K” value is recorded as “+++ (+++, >1000)”. Moreover, the negative logarithm of the Ki (pKi) at Cathepsin S was greater than 7.00.

Consider `O=C(N[C@@H](CC1CCCCC1)C(=O)NCCNc1ccc(OC(F)(F)F)cc1)c1ccc(-c2cccc(C(F)(F)F)c2)o1` [Compound 246, (S)-5-(3-Trifluoromethyl-phenyl)-furan-2-carboxylic acid {2-cyclohexyl-1-[2-(4-trifluoromethoxy-phenylamino)-ethylcarbamoyl]-ethyl}-amide], for which, on Cathepsin K, the “Selectivity for Cat. S over Cat. K” value is “++ (++, >100)”. On Cathepsin S, the negative-log Ki (pKi) is greater than 7.00.

With `COc1ccc(NCCNC(=O)[C@H](Cc2ccc(OCc3ccccc3)cc2)NC(=O)c2cccc(C)c2)cc1` [Compound 247, (S)-N-{2-(4-Benzyloxy-phenyl)-1-[2-(4-methoxy-phenylamino)-ethylcarbamoyl]-ethyl}-3-methyl-benzamide], the “Selectivity for Cat. S over Cat. K” value at Cathepsin K is on record as “+++ (+++, >1000)”. Further, the pKi on Cathepsin S was greater than 7.00.

In the case of `COc1ccc(NCCNC(=O)[C@H](Cc2ccc(OCc3c(Cl)cccc3Cl)cc2)NC(=O)c2cccc(C)c2)cc1` [Compound 248, (S)-N-{2-[4-(2,6-Dichloro-benzyloxy)-phenyl]-1-[2-(4-methoxy-phenylamino)-ethylcarbamoyl]-ethyl}-3-methyl-benzamide], on Cathepsin K, the “Selectivity for Cat. S over Cat. K” value was “+++ (+++, >1000)”. For the same compound, at Cathepsin S, the pKi was greater than 7.00.

Take `Cc1nc(N)sc1C(=O)N[C@@H](CC1CCCCC1)C(=O)NCCNc1ccc(OC(F)(F)F)cc1` [Compound 250, 2-Amino-4-methyl-thiazole-5-carboxylic acid (S)-{2-cyclohexyl-1-[2-(4-trifluoromethoxy-phenylamino)-ethylcarbamoyl]-ethyl}-amide]: at Cathepsin K, the “Selectivity for Cat. S over Cat. K” value is recorded as “++ (++, >100)”. Further, at Cathepsin S, the pKi was greater than 7.00.

On to `O=C(N[C@@H](CC1CCCCC1)C(=O)NCCNc1ccc(OC(F)(F)F)cc1)c1ccc(-c2cc(C(F)(F)F)ccc2Cl)o1` [Compound 251, (S)-5-(2-Chloro-5-trifluoromethyl-phenyl)-furan-2-carboxylic acid {2-cyclohexyl-1-[2-(4-trifluoromethoxy-phenylamino)-ethylcarbamoyl]-ethyl}-amide], for which the “Selectivity for Cat. S over Cat. K” value at Cathepsin K is on record as “+++ (+++, >1000)”. Besides, on Cathepsin S, the pKi was greater than 7.00.

As for `COc1ccc(NCCNC(=O)[C@H](Cc2cccc(C(F)(F)F)c2)NC(=O)c2cccc(C)c2)cc1` [Compound 252, (S)-N-[1-[2-(4-Methoxy-phenylamino)-ethylcarbamoyl]-2-(3-trifluoromethyl-phenyl)-ethyl]-3-methyl-benzamide], the “Selectivity for Cat. S over Cat. K” value at Cathepsin K is “+++ (+++, >1000)”. For the same compound, the pKi at Cathepsin S is greater than 7.00.

On to `COc1ccc(NCCNC(=O)[C@H](COCc2ccccc2)NC(=O)c2cccc(C)c2)cc1` [Compound 254, (S)-N-{2-Benzyloxy-1-[2-(4-methoxy-phenylamino)-ethylcarbamoyl]-ethyl}-3-methyl-benzamide], for which the “Selectivity for Cat. S over Cat. K” value on Cathepsin K is “++ (++, >100)”. The pKi on Cathepsin S was greater than 6.00.

As for `COc1ccc(NCCNC(=O)[C@H](Cc2ccc(C(C)(C)C)cc2)NC(=O)c2cccc(C)c2)cc1` [Compound 255, (S)-N-{2-(4-tert-Butyl-phenyl)-1-[2-(4-methoxy-phenylamino)-ethylcarbamoyl]-ethyl}-3-methyl-benzamide], the “Selectivity for Cat. S over Cat. K” value on Cathepsin K is given as “++ (++, >100)”. Besides, at Cathepsin S, the pKi is greater than 6.00.

Regarding `COc1ccc(NCCNC(=O)[C@H](Cc2c[nH]c3ccccc23)NC(=O)c2cccc(C)c2)cc1` [Compound 257, (S)-N-{2-(1H-Indol-3-yl)-1-[2-(4-methoxy-phenylamino)-ethylcarbamoyl]-ethyl}-3-methyl-benzamide], the “Selectivity for Cat. S over Cat. K” value on Cathepsin K is “+++ (+++, >1000)”. The pKi on Cathepsin S was greater than 7.00.

With `COc1ccc(NCCNC(=O)[C@H](Cc2cccc3ccccc23)NC(=O)c2cccc(C)c2)cc1` [Compound 258, (S)-N-{1-[2-(4-Methoxy-phenylamino)-ethylcarbamoyl]-2-naphthalen-1-yl-ethyl}-3-methyl-benzamide], at Cathepsin K, the “Selectivity for Cat. S over Cat. K” value is “+++ (+++, >1000)”. Moreover, the pKi at Cathepsin S was greater than 7.00.

`COc1ccc(NCCNC(=O)[C@@H](NC(=O)c2cccc(C)c2)C(C)OCc2ccccc2)cc1` (stereo partly drawn) [Compound 259, (S)-N-{2-Benzyloxy-1-[2-(4-methoxy-phenylamino)-ethylcarbamoyl]-propyl}-3-methyl-benzamide]: the “Selectivity for Cat. S over Cat. K” value at Cathepsin K is recorded as “++ (++, >100)”. Moreover, the pKi at Cathepsin S was greater than 6.00.

Turning to `O=C(Cc1cccc(F)c1)N[C@@H](CC1CCCCC1)C(=O)NCCNc1ccc(F)cc1` [Compound 260, 3-Cyclohexyl-2-(S)-[2-(3-fluoro-phenyl)-acetylamino]-N-[2-(4-fluoro-phenylamino)-ethyl]-propionamide], the “Selectivity for Cat. S over Cat. K” value on Cathepsin K is “++ (++, >100)”. Moreover, the pKi at Cathepsin S is greater than 7.00.

Take `O=C(N[C@@H](CC1CCCCC1)C(=O)NCCNc1ccc(F)cc1)c1ccco1` [Compound 264, Furan-2-carboxylic acid (S)-{2-cyclohexyl-1-[2-(4-fluoro-phenylamino)-ethylcarbamoyl]-ethyl}-amide]: at Cathepsin K, the “Selectivity for Cat. S over Cat. K” value was “++ (++, >100)”. Moreover, the pKi on Cathepsin S was greater than 7.00.

For the compound `O=C(Cn1cnnn1)N[C@@H](CC1CCCCC1)C(=O)NCCNc1ccc(F)cc1` [Compound 265, 3-Cyclohexyl-N-[2-(4-fluoro-phenylamino)-ethyl]-2-(S)-(2-tetrazol-1-yl-acetylamino)-propionamide], the “Selectivity for Cat. S over Cat. K” value at Cathepsin K is “++ (++, >100)”. For the same compound, the pKi at Cathepsin S is greater than 6.00.

`COc1ccc(NCCNC(=O)C(NC(=O)c2cccc(C)c2)C(C)c2ccc([N+](=O)[O-])cc2)cc1` (centres unmarked) [Compound 266, N-[1-[2-(4-Methoxy-phenylamino)-ethylcarbamoyl]-2-(4-nitro-phenyl)-propyl]-3-methyl-benzamide]: the “Selectivity for Cat. S over Cat. K” value on Cathepsin K is given as “+ (+, >10)”. For the same compound, the pKi on Cathepsin S was greater than 6.00.

Take `COc1ccc(NCCNC(=O)[C@H](Cc2ccc(Oc3cccc(C)c3)cc2)NC(=O)c2cccc(C)c2)cc1` [Compound 267, (S)-N-[1-[2-(4-Methoxy-phenylamino)-ethylcarbamoyl]-2-(4-m-tolyloxy-phenyl)-ethyl]-3-methyl-benzamide]: the “Selectivity for Cat. S over Cat. K” value on Cathepsin K is listed as “+++ (+++, >1000)”. Moreover, the pKi at Cathepsin S is greater than 7.00.

Turning to `COc1ccc(NCCNC(=O)C(NC(=O)c2cccc(C)c2)C(C)c2ccccc2)cc1` (stereo not drawn) [Compound 268, threo-N-{1-[2-(4-Methoxy-phenylamino)-ethylcarbamoyl]-2-phenyl-propyl}-3-methyl-benzamide], the “Selectivity for Cat. S over Cat. K” value at Cathepsin K is “++ (++, >100)”. The pKi at Cathepsin S is greater than 6.00.

For the compound `COc1ccc(NCCNC(=O)C(NC(=O)c2cccc(C)c2)C(C)c2ccccc2)cc1` (stereo not drawn) [Compound 269, erythro-N-{1-[2-(4-Methoxy-phenylamino)-ethylcarbamoyl]-2-phenyl-propyl}-3-methyl-benzamide], the “Selectivity for Cat. S over Cat. K” value on Cathepsin K is “+ (+, >10)”. For the same compound, the pKi at Cathepsin S was greater than 5.00.

Take `COc1ccc(NCCNC(=O)[C@H](Cc2ccc(-c3cccc([N+](=O)[O-])c3)cc2)NC(=O)c2cccc(C)c2)cc1` [Compound 271, (S)-N-[1-[2-(4-Methoxy-phenylamino)-ethylcarbamoyl]-2-(3′-nitro-biphenyl-4-yl)-ethyl]-3-methyl-benzamide]: at Cathepsin K, the “Selectivity for Cat. S over Cat. K” value is listed as “++ (++, >100)”. Besides, the pKi at Cathepsin S was greater than 6.00.

For the compound `O=C(N[C@@H](CC1CCCCC1)C(=O)NCCNc1ccc(F)cc1)c1ccoc1` [Compound 272, Furan-3-carboxylic acid (S)-{2-cyclohexyl-1-[2-(4-fluoro-phenylamino)-ethylcarbamoyl]-ethyl}-amide], at Cathepsin K, the “Selectivity for Cat. S over Cat. K” value was “++ (++, >100)”. The pKi at Cathepsin S is greater than 7.00.
